For 26 compounds, EC50 results are on record in patent US12617795B2, “Substituted 6,7-dihydro-5H-pyrrolo[3,4-d]pyrimidines, 5,7-dihydrofuro[3,4-d]pyrimidines, and pyrido[2,3-d]pyrimidines as KCC2 modulators” (Astrazeneca AB, priority 2020, dated 2026).

In the assay the target is T1, KCC2 (Homo sapiens, UniProt Q9H2X9).
T1 construct: expressed in transfected cells; host or cells: HEK293 cells electroporated (Maxcyte STX) with the pcDNA3.1 KCC2 plasmid
T1 sequence (Q9H2X9 1-1139): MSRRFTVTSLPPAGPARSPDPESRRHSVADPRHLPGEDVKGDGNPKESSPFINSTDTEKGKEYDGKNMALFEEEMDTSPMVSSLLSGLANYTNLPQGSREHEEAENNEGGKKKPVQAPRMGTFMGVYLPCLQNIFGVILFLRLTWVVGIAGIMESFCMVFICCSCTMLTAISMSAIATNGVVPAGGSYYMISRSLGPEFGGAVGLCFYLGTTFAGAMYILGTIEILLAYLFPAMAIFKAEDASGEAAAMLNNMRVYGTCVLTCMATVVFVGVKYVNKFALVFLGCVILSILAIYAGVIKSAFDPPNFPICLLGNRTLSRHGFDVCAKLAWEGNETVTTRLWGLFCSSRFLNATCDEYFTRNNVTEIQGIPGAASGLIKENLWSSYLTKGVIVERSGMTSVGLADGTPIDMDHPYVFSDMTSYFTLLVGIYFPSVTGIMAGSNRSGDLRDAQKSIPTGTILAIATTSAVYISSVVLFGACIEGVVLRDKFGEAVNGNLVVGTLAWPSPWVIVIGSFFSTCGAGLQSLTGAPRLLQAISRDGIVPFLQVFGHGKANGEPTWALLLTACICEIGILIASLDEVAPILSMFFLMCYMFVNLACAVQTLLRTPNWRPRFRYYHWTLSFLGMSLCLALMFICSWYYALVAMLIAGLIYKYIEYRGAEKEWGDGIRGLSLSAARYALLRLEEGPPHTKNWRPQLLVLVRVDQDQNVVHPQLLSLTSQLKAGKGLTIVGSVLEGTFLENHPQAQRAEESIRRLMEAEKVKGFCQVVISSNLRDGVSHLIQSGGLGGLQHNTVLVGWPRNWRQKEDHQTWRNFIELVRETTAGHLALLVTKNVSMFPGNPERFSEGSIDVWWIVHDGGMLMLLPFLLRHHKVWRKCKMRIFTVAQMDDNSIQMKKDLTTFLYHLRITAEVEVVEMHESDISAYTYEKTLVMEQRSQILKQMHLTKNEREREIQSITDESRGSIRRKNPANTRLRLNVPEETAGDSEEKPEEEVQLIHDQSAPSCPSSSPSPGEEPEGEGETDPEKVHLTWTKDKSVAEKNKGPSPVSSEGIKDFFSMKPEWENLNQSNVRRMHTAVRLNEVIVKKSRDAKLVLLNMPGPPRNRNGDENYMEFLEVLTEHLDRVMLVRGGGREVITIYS
Put plainly: KCC2 thallium transport FLIPR-based assay (Tl+ influx in HEK293 cells expressing KCC2). Format: cell-based. The conditions noted are these: 90 min compound incubation at RT, thallium flux at 120 s used to determine EC50. The procedure, abridged: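 Transient electroporation of codon-optimised human KCC2 into HEK293 cells, plated and cultured 48 h before dye loading (1 h, RT). Compounds run as a 12-point 1:2 series from 100 μM top, 90 min RT in buffer containing bumetanide; Tl+ flux read by FLIPR after stimulus addition, 1 s intervals over 120 s, with the 120 s signal used for EC50.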
For the compound `CC(C)Oc1ccc(Nc2nc(N3CCOC(C4CC4)C3)nc3c2CN(C(C)C)C3=O)cc1` (centres unmarked) [Example 62, 2-(2-cyclopropylmorpholin-4-yl)-6-(propan-2-yl)-4-({4-[(propan-2-yl)oxy]phenyl}amino)-5,6-dihydro-7H-pyrrolo[3,4-d]pyrimidin-7-one], the EC50 (commonly the concentration that produces a half-maximal response) came out at 5.66 µM. Then `NC(=O)c1cnc2nc(N3CCOC(C4CC4)C3)nc(Nc3ccc(C4CCCCC4)cc3)c2c1` (centres unmarked) [Example 105, 4-((4-cyclohexylphenyl)amino)-2-(2-cyclopropylmorpholino) pyrido[2,3-d]pyrimidine-6-carboxamide], with 1.17 µM; and `CC(C)N1Cc2c(Nc3ccc(C4CCCCC4)cc3)nc(N(C)CC3CCCO3)nc2C1=O` (centres unmarked) [Example 35], with 6.3 µM; and `C[C@@H]1CN(c2nc(Nc3ccc(C4CCCCC4)cc3)c3cccnc3n2)CCO1` [Example 96, N-(4-cyclohexylphenyl)-2-[(2R)-2-methylmorpholin-4-yl]pyrido[2,3-d]pyrimidin-4-amine], with 2.92 µM. As for `CCCN(CCC)c1nc(Nc2ccc(C3CCCCC3)cc2)c2c(n1)C(=O)N(C(C)C)C2` [Example 29, 4-[(4-cyclohexylphenyl)amino]-2-(dipropylamino)-6-(propan-2-yl)-5,6-dihydro-7H-pyrrolo[3,4-d]pyrimidin-7-one], the figure is 3.89 µM; as for `CC(C)N1Cc2c(Nc3ccc(-c4cccs4)cc3)nc(N3CCOCC3)nc2C1=O` [Example 113, 2-(morpholin-4-yl)-6-(propan-2-yl)-4-{[4-(thiophen-2-yl)phenyl]amino}-5,6-dihydro-7H-pyrrolo[3,4-d]pyrimidin-7-one], 4.74 µM. Then `CCC1CN(c2nc(Nc3ccc(C4CCCCC4)cc3)c3c(n2)C(=O)N(C(C)C)C3)CCO1` (centres unmarked) [Example 21, 4-[(4-cyclohexylphenyl)amino]-2-(2-ethylmorpholin-4-yl)-6-(propan-2-yl)-5,6-dihydro-7H-pyrrolo[3,4-d]pyrimidin-7-one], with 2.64 µM; and `CCc1cnc2nc(N3CCO[C@H](C)C3)nc(Nc3ccc(C4CCCCC4)cc3)c2c1` [Example 100, (R)—N-(4-cyclohexylphenyl)-6-ethyl-2-(2-methylmorpholino) pyrido[2,3-d]pyrimidin-4-amine], with 6.3 µM.

With `CC(C)N1Cc2c(Nc3ccc(C4CCCCC4)cc3)nc(C3CCOCC3)nc2C1=O` [Example 78, 4-((4-cyclohexylphenyl)amino)-6-isopropyl-2-(tetrahydro-2H-pyran-4-yl)-5,6-dihydro-7H-pyrrolo[3,4-d]pyrimidin-7-one], the half-maximal effective concentration (EC50) stood at 3.08 µM. Then `CC(C)N1Cc2c(Nc3ccc(C4CCCCC4)cc3)nc(N3CCOC4(CCOCC4)C3)nc2C1=O` [Example 25, 4-[(4-cyclohexylphenyl)amino]-2-(1,9-dioxa-4-azaspiro[5.5]undecan-4-yl)-6-(propan-2-yl)-5,6-dihydro-7H-pyrrolo[3,4-d]pyrimidin-7-one], with 3.41 µM. As for `CC(C)N1Cc2c(Nc3ccc(-c4ccc(OCCNC(=O)OC(C)(C)C)cc4)cc3)nc(N3CCOC(C4CC4)C3)nc2C1=O` (centres unmarked) [Example 66, tert-butyl {2-[(4′-{[2-(2-cyclopropylmorpholin-4-yl)-7-oxo-6-(propan-2-yl)-6,7-dihydro-5H-pyrrolo[3,4-d]pyrimidin-4-yl]amino}[1,1′-biphenyl]-4-yl)oxy]ethyl}carbamate], the figure is 0.917 µM; as for `CC(C)N1Cc2c(Nc3ccc(-c4ccccc4)c(F)c3)nc(N3CCOCC3)nc2C1=O` [Example 84, 4-[(2-fluoro[1,1′-biphenyl]-4-yl)amino]-2-(morpholin-4-yl)-6-(propan-2-yl)-5,6-dihydro-7H-pyrrolo[3,4-d]pyrimidin-7-one], 2.09 µM; as for `C#CCCC1(CCOc2ccc(-c3ccc(Nc4nc(N5CCOC(C6CC6)C5)nc5c4CN(C(C)C)C5=O)cc3)cc2)N=N1` (centres unmarked) [Example 54, 4-[(4′-{2-[3-(but-3-yn-1-yl)-3H-diaziren-3-yl]ethoxy}[1,1′-biphenyl]-4-yl)amino]-2-(2-cyclopropyl-morpholin-4-yl)-6-(propan-2-yl)-5,6-dihydro-7H-pyrrolo[3,4-d]pyrimidin-7-one], 0.253 µM. Then `CC(C)N1Cc2nc(N3CCO[C@H](C)C3)nc(Nc3ccc(C4CCCCC4)cc3)c2C1` [Example 110, (R)—N-(4-cyclohexylphenyl)-6-isopropyl-2-(2-methylmorpholino)-6,7-dihydro-5H-pyrrolo[3,4-d]pyrimidin-4-amine], with 7.31 µM.

In the case of `CC(C)N1Cc2c(Nc3ccc(C4CCCCC4)cc3)nc(N3CCOC(C4CC4)C3)nc2C1=O` (single isomer, unassigned) [Example 15, 4-[(4-cyclohexylphenyl)amino]-2-(2-cyclopropylmorpholin-4-yl)-6-(propan-2-yl)-5,6-dihydro-7H-pyrrolo[3,4-d]pyrimidin-7-one], it took 0.769 µM to reach a half-maximal effect (EC50). Then `CC(C)N1Cc2c(Nc3ccc(OC4CCCC4)cc3)nc(N3CCO[C@H](C)C3)nc2C1=O` [Example 64, 4-{[4-(cyclopentyloxy)phenyl]amino}-2-[(2R)-2-methylmorpholin-4-yl]-6-(propan-2-yl)-5,6-dihydro-7H-pyrrolo[3,4-d]pyrimidin-7-one], with 5.76 µM.

With `CC(C)N1Cc2c(Nc3ccc(C(F)(F)C(F)(F)F)cc3)nc(N3CCO[C@H](C)C3)nc2C1=O` [Example 61, 2-[(2R)-2-methylmorpholin-4-yl]-4-{[4-(pentafluoroethyl)phenyl]amino}-6-(propan-2-yl)-5,6-dihydro-7H-pyrrolo[3,4-d]pyrimidin-7-one], the midpoint of the response, the EC50, lay at 5.51 µM. Then `Cc1cc(-c2nc3c(c(Nc4ccc(C5CCCCC5)cc4)n2)COC3)ccn1` [Example 95, N-(4-cyclohexylphenyl)-2-(2-methylpyridin-4-yl)-5,7-dihydrofuro[3,4-d]pyrimidin-4-amine], with 3.22 µM; and `CC(C)N1Cc2nc(N3CCOCC3)nc(Nc3ccc(C4CCCCC4)cc3)c2C1` [Example 109, N-(4-cyclohexylphenyl)-6-isopropyl-2-morpholino-6,7-dihydro-5H-pyrrolo[3,4-d]pyrimidin-4-amine], with 6.34 µM; and `CC(C)N1Cc2c(Nc3ccc(C(C)(C)C)cc3)nc(N3CCOCC3)nc2C1=O` [Example 87, 4-[(4-tert-butylphenyl)amino]-2-(morpholin-4-yl)-6-(propan-2-yl)-5,6-dihydro-7H-pyrrolo[3,4-d]pyrimidin-7-one], with 8.18 µM. Then `CC(C)N1Cc2c(Nc3ccc(C4CCCCC4)cc3)nc(-c3ccnc(C4CC4)c3)nc2C1=O` [Example 42, 4-[(4-cyclohexylphenyl)amino]-2-(2-cyclopropylpyridin-4-yl)-6-(propan-2-yl)-5,6-dihydro-7H-pyrrolo[3,4-d]pyrimidin-7-one], with 0.633 µM; and `c1cc(C2CCCCC2)ccc1Nc1nc(N2CCOC(C3CC3)C2)nc2c1COC2` (centres unmarked) [Example 92, N-(4-cyclohexylphenyl)-2-(2-cyclopropyl-morpholin-4-yl)-5,7-dihydrofuro[3,4-d]pyrimidin-4-amine], with 2.37 µM. Then `CC(C)c1ccc(Nc2nc(C3=CCOCC3)nc3c2CN(C(C)C)C3=O)cc1` [Example 50, 2-(3,6-dihydro-2H-pyran-4-yl)-6-(propan-2-yl)-4-{[4-(propan-2-yl)phenyl]amino}-5,6-dihydro-7H-pyrrolo[3,4-d]pyrimidin-7-one], with 7.98 µM; and `Cc1cc(Nc2nc(N3CCOCC3)nc3c2CN(C(C)C)C3=O)ccc1-c1ccccc1` [Example 88, 4-[(2-methyl[1,1′-biphenyl]-4-yl)amino]-2-(morpholin-4-yl)-6-(propan-2-yl)-5,6-dihydro-7H-pyrrolo[3,4-d]pyrimidin-7-one], with 3.52 µM; and `CC(C)c1ccc(Nc2nc(-c3ccncc3)nc3c2CN(C(C)C)C3=O)cc1` [Example 40, 6-isopropyl-4-((4-isopropylphenyl)amino)-2-(pyridin-4-yl)-5,6-dihydro-7H-pyrrolo[3,4-d]pyrimidin-7-one], with 6.36 µM. `CCC(C)c1ccc(Nc2nc(N3CCO[C@H](C)C3)nc3c2CN(C(C)C)C3=O)cc1` (stereo partly drawn) [Example 56, 4-{[4-(butan-2-yl)phenyl]amino}-2-[(2R)-2-methylmorpholin-4-yl]-6-(propan-2-yl)-5,6-dihydro-7H-pyrrolo[3,4-d]pyrimidin-7-one]: a half-maximal response (EC50) required 3.28 µM.
